Laboratory results published in paper PMC12954580, “Multivalent glycoligands with lectin/enzyme dual specificity: self-deliverable glycosidase regulators” (Chemical Communications (Cambridge, England), 2019).

What was measured:
[1] = biological target: T1, recombinant human MMR (macrophage mannose receptor) (Homo sapiens, UniProt P22897); assay: Modified ELLA: inhibition of rhMMR binding to yeast mannan; details: mean of three independent experiments ± SD
T1 sequence (P22897 19-1456): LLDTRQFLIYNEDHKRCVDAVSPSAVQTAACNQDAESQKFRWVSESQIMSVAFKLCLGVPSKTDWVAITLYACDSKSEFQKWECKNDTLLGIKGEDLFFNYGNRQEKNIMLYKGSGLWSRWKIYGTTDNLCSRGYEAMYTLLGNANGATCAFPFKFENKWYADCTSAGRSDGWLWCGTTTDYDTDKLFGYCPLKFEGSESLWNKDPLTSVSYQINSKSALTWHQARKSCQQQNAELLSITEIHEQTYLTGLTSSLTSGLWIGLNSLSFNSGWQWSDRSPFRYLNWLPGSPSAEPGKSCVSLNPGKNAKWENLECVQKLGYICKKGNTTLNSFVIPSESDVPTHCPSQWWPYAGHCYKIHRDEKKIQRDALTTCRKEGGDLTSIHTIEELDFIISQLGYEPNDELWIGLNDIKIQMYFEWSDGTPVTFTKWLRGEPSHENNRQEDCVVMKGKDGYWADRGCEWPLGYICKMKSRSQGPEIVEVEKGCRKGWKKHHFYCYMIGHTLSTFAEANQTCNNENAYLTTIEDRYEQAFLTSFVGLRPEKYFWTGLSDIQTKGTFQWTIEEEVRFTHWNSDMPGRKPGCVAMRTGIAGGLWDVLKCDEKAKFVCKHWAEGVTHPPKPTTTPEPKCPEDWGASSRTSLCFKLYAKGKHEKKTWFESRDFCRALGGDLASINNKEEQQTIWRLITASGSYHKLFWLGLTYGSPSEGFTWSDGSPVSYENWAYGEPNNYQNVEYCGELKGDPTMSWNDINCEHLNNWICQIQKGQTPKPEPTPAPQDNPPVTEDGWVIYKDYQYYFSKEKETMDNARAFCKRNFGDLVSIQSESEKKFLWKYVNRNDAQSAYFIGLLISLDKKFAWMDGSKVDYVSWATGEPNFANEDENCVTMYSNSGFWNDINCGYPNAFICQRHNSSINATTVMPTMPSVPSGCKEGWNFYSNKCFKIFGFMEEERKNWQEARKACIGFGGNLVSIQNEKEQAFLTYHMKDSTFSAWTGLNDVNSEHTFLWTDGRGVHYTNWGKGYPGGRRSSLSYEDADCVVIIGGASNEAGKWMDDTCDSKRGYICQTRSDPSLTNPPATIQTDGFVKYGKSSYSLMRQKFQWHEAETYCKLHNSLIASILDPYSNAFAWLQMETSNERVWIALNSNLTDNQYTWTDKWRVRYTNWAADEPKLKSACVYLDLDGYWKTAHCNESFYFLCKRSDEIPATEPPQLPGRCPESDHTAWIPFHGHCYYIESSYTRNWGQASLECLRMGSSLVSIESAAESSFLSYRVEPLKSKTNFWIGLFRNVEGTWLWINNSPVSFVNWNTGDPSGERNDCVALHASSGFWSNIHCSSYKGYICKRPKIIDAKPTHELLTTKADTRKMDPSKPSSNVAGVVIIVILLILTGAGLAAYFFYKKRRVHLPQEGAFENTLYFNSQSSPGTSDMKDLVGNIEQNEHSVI
Procedure: conjugates 3-8 the above protocol was repeated using in the last incubation step a solution of the desired HRP-ConA lectin concentration (50 µL per well) that contained inhibitors targeting the glycone, glycone/aglycone and surface sites (9-13; 500 µM; Figure S21B). Control […]
in the absence of the enzyme.
Determination of recombinant human MMR (rhMMR) binding affinities . The wells of mannan-coated microplates, prepared as above described, were filled with 100 μL of serial dilutions of rhMMR from a 10 µg·mL-1 stock solution in PBS (pH 7.3 containing 0.1 mM Ca2+ and 0.1 mM Mn2+), and incubated at 37 °C for 1 h. The plates were washed three times with PBST as described above and 100 µL of a solution of biotinylated anti -human MMR antibody (0.2 µg·mL_1, R&D Systems) in PBS was added in each well, and the plates were further incubated for 1 h at 37 °C.
The complex NeutrAvidin-biotinylated HRP was preformed separately by successively adding to Tris buffer (9.6 mL, 50 mM, pH 7.6) a solution of NeutrAvidin (100 µg·mL-1 in Tris buffer, 1.2 mL, Thermo Scientific) and a solution of biotin-conjugated HRP (25 µg·mL-1 in Tris buffer, 1.2 mL, Thermo Scientific). […] After 5 min at RT, the optical density was measured at 415 nm. […]
inhibition experiments. […] Optical density at 415 nm was determined after 5 min. The percent of inhibition was calculated as above indicated for a typical ELLA experiment.

[2] = biological target: T2, α-mannosidase (jack beans) (Canavalia ensiformis, UniProt C0HJB3); assay: Enzymatic stability / substrate behaviour towards glycosidases (gas chromatography); assay type: biochemical; details: control experiment
T2 construct: purchased; host or cells: jack beans
T2 sequence (C0HJB3 1-981): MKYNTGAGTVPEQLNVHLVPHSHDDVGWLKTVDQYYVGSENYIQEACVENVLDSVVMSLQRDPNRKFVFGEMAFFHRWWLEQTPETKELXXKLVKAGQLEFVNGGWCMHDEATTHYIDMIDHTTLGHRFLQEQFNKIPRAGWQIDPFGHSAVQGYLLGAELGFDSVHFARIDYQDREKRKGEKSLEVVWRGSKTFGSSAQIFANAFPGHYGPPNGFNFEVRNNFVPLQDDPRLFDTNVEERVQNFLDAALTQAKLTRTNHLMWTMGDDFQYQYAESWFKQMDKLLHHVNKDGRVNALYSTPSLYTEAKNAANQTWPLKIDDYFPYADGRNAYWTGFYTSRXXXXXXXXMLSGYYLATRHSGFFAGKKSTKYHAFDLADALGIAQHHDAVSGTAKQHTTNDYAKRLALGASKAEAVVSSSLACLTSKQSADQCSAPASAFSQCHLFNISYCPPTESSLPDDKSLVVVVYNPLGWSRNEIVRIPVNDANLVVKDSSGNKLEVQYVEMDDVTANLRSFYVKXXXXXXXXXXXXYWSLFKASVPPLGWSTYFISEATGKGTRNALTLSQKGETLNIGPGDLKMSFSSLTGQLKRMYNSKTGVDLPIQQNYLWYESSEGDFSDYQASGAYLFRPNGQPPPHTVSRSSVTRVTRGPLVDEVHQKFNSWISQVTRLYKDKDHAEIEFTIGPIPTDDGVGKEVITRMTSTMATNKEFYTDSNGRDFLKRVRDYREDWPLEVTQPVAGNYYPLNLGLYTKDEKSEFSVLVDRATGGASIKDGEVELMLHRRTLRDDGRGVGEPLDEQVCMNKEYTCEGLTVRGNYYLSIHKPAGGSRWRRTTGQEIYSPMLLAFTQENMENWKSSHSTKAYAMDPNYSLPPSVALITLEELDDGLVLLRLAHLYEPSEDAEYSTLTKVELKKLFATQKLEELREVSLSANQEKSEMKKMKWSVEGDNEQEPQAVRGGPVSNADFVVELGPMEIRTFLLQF
Source text: Preliminary evidence on the feasibility of achieving disparate glycosidase inhibition selectivity with the multivalent glycoclusters 3–8 and, at the same time, retaining intrinsic lectin binding properties was achieved by conducting control experiments using both commercial glycosidases and lectins. The glycosidase panel included α- and β-glucosidases (S. cerevisiae and bovine liver), α- and β-galactosidases (green coffee beans and E. coli) and α- and β-mannosidases (jack beans and H. pomatia). Prior to kinetic determination of the corresponding inhibition constant (Ki) values (Table S1 and Fig. S9–S18, ESI ^†), the enzymatic stability was investigated by gas chromatography. […] In all the other cases the α-mannopyranoside linkages remained stable, meaning that any effect observed in the enzyme activity should be ascribed to an inhibitor and not to a substrate behavior.

concanavalin A (ConA) = biological target: T3, concanavalin A (ConA) (Canavalia ensiformis, UniProt P02866); assay: Enzyme-linked lectin assay (ELLA), HRP-ConA/mannan binding inhibition; set-up: species or system Concanavalia einsiformis; details: Figure S19A, values printed over bars, axis log [IC50, M]
T3 construct: purchased
Procedure: The absorbance of the resulting mixture was determined at 405 nm.

| Compound | IC50 [1] | Substrate behaviour towards GH38 jack bean Manase [2] | IC50 (concanavalin A (ConA)) |
| --- | --- | --- | --- |
| Man9 | 3.9 ± 0.5 µM | substrates | – |
| CO[C@H]1O[C@H](CO)[C@@H](O)[C@H](O)[C@@H]1O [MeMan, methyl α-D-mannopyranoside] | – | – | 800 µM |
